The source of these data is patent publication US11613556B2, “Oxysterols and methods of use thereof” (Sage Therapeutics, Inc., priority 2016, dated 2023).

The target in the assay is glutamate-activated channels of the GRIN1/2A subtype stably transfected in HEK 293 cells (Homo sapiens (Human), UniProt Q05586+Q12879). Kind of assay: Automated patch-clamp system (QPatch HTX), percent potentiation at 1 μM. The conditions noted are these: HEK293, 1 μM test compound, 300 μM NMDA with 8 μM glycine, HEK 293 GRIN1/2A, read-out: GluN2A PCA % potentiation at 1 μM. It counts as cell-based. How it is done:
NMDA potentiation in mammalian cells which expressed NMDA receptors was assessed using the automatic patch-clamp system can be used determine the NAM activity of compounds as described below. An whole cell patch-clamp system can be used determine the PAM activity of compounds as described below.
Automated Patch-Clamp System (OPatch HTX):
In this study, HEK 293 cells stably transfected with glutamate-activated channels of the GRIN1/2A subtype will be used together with submaximal NMDA concentrations (300 μM NMDA, co-application with 8 μM Glycine) to investigate the negative allosteric modulation of the test compounds.
In general, cells will be passaged at a confluence of about 80% to […]. For electrophysiological measurements cells will be harvested at a confluence of about 80% to 90% from sterile culture flasks containing culture complete medium. Cells will be transferred as suspension in PBS to the QPatch 16X or QPatch HTX system to the centrifuge/washer directly.
Standard Laboratory Conditions: Cells will be incubated at 37° C. in a humidified atmosphere with 5% CO2 (rel. humidity about 95%).
Culture media: The cells will be continuously maintained in and passaged in sterile culture flasks containing a 1:1 mixture of Dulbecco's modified eagle medium and nutrient mixture F-12 (D-MEM/F-12 1×, liquid, with L-Glutamine) supplemented with 10% fetal bovine serum, 1% Penicillin/Streptomycin solution, and 50 μM AP-5 blocker.
Antibiotics: The complete medium as indicated above is supplemented with 100 μg/mL hygromycin, 15 μg/mL blasticidin and 1 μg/mL puromycin.
Induction of Expression: 2.5 μg/mL tetracycline is added 24 h before start of experiments.
Dose levels are in terms of test compounds, as supplied. Vehicle will be added to achieve a stock concentration of 10 mM (storage at −10° C. to −30° C.). A further stock solutions of 1.0 mM will be prepared in DMSO. Details of stock solution usage (thawing, dose formulations) will be documented in the raw data. The time period of stock solution usage will be detailed in the report.
Test Compound Concentrations
One test concentration of 1.0 μM will be tested.
All test solutions will be prepared by diluting the stock solutions with either Mg-free bath solution only or Mg-free bath solution containing NMDA (300 μM) and glycine (8.0 μM) shortly prior to the electrophysiological experiments and kept at room temperature (19° C. to 30° C.) when in use. 0.1% DMSO will be used as vehicle.
Frequency of preparation: For each test concentration, fresh solutions of test compounds will be prepared every day.
Stability of dose formulation: All preparation times will be documented in the raw data. Any observations regarding instability of test compounds will be mentioned in the raw data.
Storage of dose formulation: On the day of experimentation dose formulations will be maintained at room temperature (19° C. to 30° C.) when in use.
For preparing the experiments and for formation of the giga-ohm-seal, the following standard bath solution will be used:
Sodium Chloride: 137 mM; Potassium Chloride: 4 mM; Calcium Chloride: 1.8 mM; Magnesium Chloride: 1 mM; HEPES: 10 mM; D-Glucose: 10 mM; Cremophor: 0.02%; pH (NaOH): 7.4
The 1× bath solution will be prepared by diluting 10× bath solution without Glucose and 100× Glucose solution with water at least every 7 days. Both stock solutions have been prepared prior to the experimental start of the present study and stored at 1° C. to 9° C. (10× bath solution) or −10° C. to −30° (100× Glucose solution). The batch number(s) of the bath solution(s) used in the experiments will be documented in the raw data. When in use, the 1× bath solution will be kept at room temperature (19° C. to 30° C.). When not in use, the 1× bath solution will be stored at 1° C. to 9° C.
After the giga-seal was formed the following Mg-free bath solution will be used:
Sodium Chloride: 137 mM; Potassium Chloride: 4 mM; Calcium Chloride; 2.8 mM; HEPES: 10 mM; D-Glucose: 10 mM; Cremophor: 0.02%; pH (NaOH): 7.4 […]

Chain of glutamate-activated channels of the GRIN1/2A subtype stably transfected in HEK 293 cells (Q12879 whole entry, looked up, other chains not shown): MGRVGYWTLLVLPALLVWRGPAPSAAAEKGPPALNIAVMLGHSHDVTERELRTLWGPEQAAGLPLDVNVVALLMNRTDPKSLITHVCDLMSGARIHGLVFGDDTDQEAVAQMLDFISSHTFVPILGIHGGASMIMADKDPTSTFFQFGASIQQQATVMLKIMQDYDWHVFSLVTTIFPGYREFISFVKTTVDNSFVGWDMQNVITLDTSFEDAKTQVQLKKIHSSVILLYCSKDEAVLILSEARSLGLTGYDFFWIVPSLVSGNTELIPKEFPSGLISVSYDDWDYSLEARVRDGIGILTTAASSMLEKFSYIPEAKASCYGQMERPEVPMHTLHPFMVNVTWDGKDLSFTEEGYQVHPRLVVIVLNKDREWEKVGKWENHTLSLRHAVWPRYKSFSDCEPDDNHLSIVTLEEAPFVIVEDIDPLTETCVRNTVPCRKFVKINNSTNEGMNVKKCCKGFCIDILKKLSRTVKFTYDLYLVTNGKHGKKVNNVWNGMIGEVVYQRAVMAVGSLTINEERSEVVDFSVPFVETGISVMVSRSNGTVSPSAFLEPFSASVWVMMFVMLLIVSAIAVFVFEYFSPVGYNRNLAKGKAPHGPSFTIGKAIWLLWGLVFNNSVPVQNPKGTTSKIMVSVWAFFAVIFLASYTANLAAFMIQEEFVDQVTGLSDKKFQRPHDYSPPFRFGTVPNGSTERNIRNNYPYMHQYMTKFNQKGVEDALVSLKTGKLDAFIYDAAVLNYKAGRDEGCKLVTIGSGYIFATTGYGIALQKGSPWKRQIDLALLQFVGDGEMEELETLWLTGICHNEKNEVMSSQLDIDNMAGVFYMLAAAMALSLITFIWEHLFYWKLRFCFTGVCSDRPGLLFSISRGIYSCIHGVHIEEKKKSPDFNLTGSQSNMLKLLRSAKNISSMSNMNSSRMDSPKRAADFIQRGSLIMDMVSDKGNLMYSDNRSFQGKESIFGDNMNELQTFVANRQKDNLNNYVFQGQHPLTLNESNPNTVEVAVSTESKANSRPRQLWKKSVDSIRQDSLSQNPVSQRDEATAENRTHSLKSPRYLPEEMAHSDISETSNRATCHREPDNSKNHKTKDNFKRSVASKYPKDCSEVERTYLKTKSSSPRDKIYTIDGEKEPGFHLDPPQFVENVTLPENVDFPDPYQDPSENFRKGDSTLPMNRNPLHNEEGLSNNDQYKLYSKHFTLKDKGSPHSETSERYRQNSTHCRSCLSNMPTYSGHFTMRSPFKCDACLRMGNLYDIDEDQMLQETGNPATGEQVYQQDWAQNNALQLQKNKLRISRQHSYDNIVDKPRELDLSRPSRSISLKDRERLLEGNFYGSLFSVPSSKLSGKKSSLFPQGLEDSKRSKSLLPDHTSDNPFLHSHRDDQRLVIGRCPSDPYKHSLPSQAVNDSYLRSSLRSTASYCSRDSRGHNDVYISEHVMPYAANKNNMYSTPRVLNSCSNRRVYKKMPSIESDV

Regarding `CC[C@]1(O)CC[C@@]2(C)[C@@H](CC[C@@H]3[C@@H]2CC[C@]2(C)[C@@H]([C@H](C)[C@@H](O)C4CCOCC4)CC[C@@H]32)C1` [Compound 86, (3S,5S,8R,9S,10S,13S,14S,17R)-3-ethyl-17-((1S,2S)-1-hydroxy-1-(tetrahydro-2H-pyran-4-yl)propan-2-yl)-10,13-dimethylhexadecahydro-1H-cyclopenta[a]phenanthren-3-ol], the activation at 1 µM is -40 to -10%.
For `C[C@H]([C@@H](O)C(F)(F)F)[C@H]1CC[C@H]2[C@@H]3CC[C@@H]4C[C@@](C)(O)CC[C@]4(C)[C@H]3CC[C@]12C` [Compound 57, (3S,5R,8R,9S,10S,13S,14S,17R)-3,10,13-trimethyl-17-((2S,3R)-4,4,4-trifluoro-3-hydroxybutan-2-yl)hexadecahydro-1H-cyclopenta[a]phenanthren-3-ol], the activation at 1 µM is less than -40%.
On to `C[C@H]([C@H](C)O)[C@H]1CC[C@H]2[C@@H]3CC[C@H]4C[C@](O)(C(F)(F)F)CC[C@]4(C)[C@H]3CC[C@]12C` [Compound 91, (3S,5S,8R,9S,10S,13S,14S,17R)-17-((2S,3S)-3-hydroxybutan-2-yl)-10,13-dimethyl-3-(trifluoromethyl)hexadecahydro-1H-cyclopenta[a]phenanthren-3-ol], for which the activation at 1 µM is -40 to -10%.
In the case of `CC[C@]1(O)CC[C@@]2(C)[C@@H](CC[C@@H]3[C@@H]2CC[C@]2(C)[C@@H]([C@H](C)[C@@H](O)c4cccnc4)CC[C@@H]32)C1` [Compound 7, (3S,5S,8R,9S,10S,13S,14S,17R)-3-ethyl-17-((1R,2S)-1-hydroxy-1-(pyridin-3-yl)propan-2-yl)-10,13-dimethylhexadecahydro-1H-cyclopenta[a]phenanthren-3-ol], the activation at 1 µM was -10 to 10%.
`CC[C@]1(O)CC[C@@]2(C)[C@H](CC[C@@H]3[C@@H]2CC[C@]2(C)[C@@H]([C@H](C)[C@@H](O)CCC(C)C)CC[C@@H]32)C1` [Compound 64, (3S,5R,8R,9S,10S,13S,14S,17R)-3-ethyl-17-((2S,3S)-3-hydroxy-6-methylheptan-2-yl)-10,13-dimethylhexadecahydro-1H-cyclopenta[a]phenanthren-3-ol]: the activation at 1 µM is -40 to -10%.
The figure for `C[C@@H]([C@H]1CC[C@H]2[C@@H]3CC=C4C[C@](O)(C(F)(F)F)CC[C@]4(C)[C@H]3CC[C@]12C)[C@H](O)C(F)(F)F` [Compound 1, (3S,8S,9S,10R,13S,14S,17R)-10,13-dimethyl-17-((2S,3S)-4,4,4-trifluoro-3-hydroxybutan-2-yl)-3-(trifluoromethyl)-2,3,4,7,8,9,10,11,12,13,14,15,16,17-tetradecahydro-1H-cyclopenta[a]phenanthren-3-ol] is -40 to -10%; for `C[C@@H]([C@H]1CC[C@H]2[C@@H]3CC[C@@H]4C[C@@](C)(O)CC[C@]4(C)[C@H]3CC[C@]12C)[C@H](O)C(F)(F)F` [Compound 97, (3S,5R,8R,9S,10S,13S,14S,17R)-3,10,13-trimethyl-17-((2S,3S)-4,4,4-trifluoro-3-hydroxybutan-2-yl)hexadecahydro-1H-cyclopenta[a]phenanthren-3-ol] it is -40 to -10%; for `CC[C@]1(O)CC[C@@]2(C)[C@H](CC[C@@H]3[C@@H]2CC[C@]2(C)[C@@H]([C@H](C)[C@@H](O)C(F)(F)F)CC[C@@H]32)C1` [Compound 43, (3S,5R,8R,9S,10S,13S,14S,17R)-3-ethyl-10,13-dimethyl-17-((2S,3R)-4,4,4-trifluoro-3-hydroxybutan-2-yl)hexadecahydro-1H-cyclopenta[a]phenanthren-3-ol] it is less than -40%.
Under `CC[C@]1(O)CC[C@@]2(C)[C@@H](CC[C@@H]3[C@@H]2CC[C@]2(C)[C@@H]([C@H](C)[C@H](C)O)CC[C@@H]32)C1` [Compound 50, (3S,5S,8R,9S,10S,13S,14S,17R)-3-ethyl-17-((2S,3S)-3-hydroxybutan-2-yl)-10,13-dimethylhexadecahydro-1H-cyclopenta[a]phenanthren-3-ol] stands -40 to -10%.
In the case of `CC(C)CC[C@H](O)[C@@H](C)[C@H]1CC[C@H]2[C@@H]3CC=C4C[C@@](C)(O)CC[C@@H]4[C@H]3CC[C@]12C` [Compound 80, (3S,8R,9S,10R,13S,14S,17R)-17-((2S,3S)-3-hydroxy-6-methylheptan-2-yl)-3,13-dimethyl-2,3,4,7,8,9,10,11,12,13,14,15,16,17-tetradecahydro-1H-cyclopenta[a]phenanthren-3-ol], the activation at 1 µM was -40 to -10%.
The figure for `CC[C@]1(O)CC[C@@]2(C)[C@@H](CC[C@@H]3[C@@H]2CC[C@]2(C)[C@@H]([C@H](C)[C@@H](O)C(F)(F)F)CC[C@@H]32)C1` [Compound 16, (3S,5S,8R,9S,10S,13S,14S,17R)-3-ethyl-10,13-dimethyl-17-((2S,3R)-4,4,4-trifluoro-3-hydroxybutan-2-yl)hexadecahydro-1H-cyclopenta[a]phenanthren-3-ol] is -40 to -10%.
Under `CC[C@]1(O)CC[C@@]2(C)C(=CC[C@H]3[C@@H]4CC[C@H]([C@H](C)[C@@H](O)C(F)(F)F)[C@@]4(C)CC[C@@H]32)C1` [Compound 62, (3S,8S,9S,10R,13S,14S,17R)-3-ethyl-10,13-dimethyl-17-((2S,3R)-4,4,4-trifluoro-3-hydroxybutan-2-yl)-2,3,4,7,8,9,10,11,12,13,14,15,16,17-tetradecahydro-1H-cyclopenta[a]phenanthren-3-ol] stands -40 to -10%; under `CC[C@]1(O)CC[C@@]2(C)[C@@H](CC[C@@H]3[C@@H]2CC[C@]2(C)[C@@H]([C@H](C)[C@@H](O)C(C)C)CC[C@@H]32)C1` [Compound 65, (3S,5S,8R,9S,10S,13S,14S,17R)-3-ethyl-17-((2S,3S)-3-hydroxy-4-methylpentan-2-yl)-10,13-dimethylhexadecahydro-1H-cyclopenta[a]phenanthren-3-ol], -40 to -10%.
`COC[C@]1(O)CC[C@H]2[C@H](CC[C@@H]3[C@@H]2CC[C@]2(C)[C@@H]([C@H](C)[C@H](O)C(F)(F)F)CC[C@@H]32)C1` [Compound 48, (3S,5R,8R,9R,10S,13S,14S,17R)-3-(methoxymethyl)-13-methyl-17-((2S,3S)-4,4,4-trifluoro-3-hydroxybutan-2-yl)hexadecahydro-1H-cyclopenta[a]phenanthren-3-ol]: the activation at 1 µM was -40 to -10%.
As to `CC[C@]1(O)CC[C@@]2(C)[C@@H](CC[C@@H]3[C@@H]2CC[C@]2(C)[C@@H]([C@H](C)[C@H](O)C4CCCC4)CC[C@@H]32)C1` [Compound 58, (3S,5S,8R,9S,10S,13S,14S,17R)-17-((1R,2S)-1-cyclopentyl-1-hydroxypropan-2-yl)-3-ethyl-10,13-dimethylhexadecahydro-1H-cyclopenta[a]phenanthren-3-ol], the activation at 1 µM was -40 to -10%.
Under `CC[C@]1(O)CC[C@@]2(C)[C@@H](CC[C@@H]3[C@@H]2CC[C@]2(C)[C@@H]([C@H](C)[C@@H](O)c4ccccc4)CC[C@@H]32)C1` [Compound 55, (3S,5S,8R,9S,10S,13S,14S,17R)-3-ethyl-17-((1R,2S)-1-hydroxy-1-phenylpropan-2-yl)-10,13-dimethylhexadecahydro-1H-cyclopenta[a]phenanthren-3-ol] stands -40 to -10%.
